{"source": "the supplement of paper PMC4932681", "key": {"ZR-75-1 Tam1 [1]": {"tested_on": "ZR-75-1 Tam1", "assay": "relative IC50 (midpoint of fitted logistic curve, plateau may be below 50% inhibition; CellTiter-Glo viability); higher = less potent", "conditions": "4-OH-tamoxifen in medium 1 µM; 72 h", "protocol": "(§1)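 FIMM FO2B library drugs were plated at 5 concentrations spanning a 10,000-fold range in 384-well plates. Cells were incubated for 72 h at 37 °C and viability was read by CellTiter-Glo, normalised to DMSO (0% inhibition) and 100 µM benzethonium chloride (100% inhibition). IC50 values come from logistic dose-response fits (Breeze pipeline). Tamoxifen-resistant lines and the 'in 1µM tamoxifen' parental arms were tested in medium with 1 µM 4-OH-tamoxifen.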"}, "ZR-75-1 Tam2 [2]": {"tested_on": "ZR-75-1 Tam2", "assay": "relative IC50 (midpoint of fitted logistic curve, plateau may be below 50% inhibition; CellTiter-Glo viability); higher = less potent", "conditions": "4-OH-tamoxifen in medium 1 µM; 72 h", "protocol": "as §1"}, "MCF-7 Tam1 [3]": {"tested_on": "MCF-7 Tam1", "assay": "relative IC50 (midpoint of fitted logistic curve, plateau may be below 50% inhibition; CellTiter-Glo viability); higher = less potent", "conditions": "4-OH-tamoxifen in medium 1 µM; 72 h", "protocol": "as §1"}, "T-47D Tam1 [4]": {"tested_on": "T-47D Tam1", "assay": "relative IC50 (midpoint of fitted logistic curve, plateau may be below 50% inhibition; CellTiter-Glo viability); higher = less potent", "conditions": "4-OH-tamoxifen in medium 1 µM; 72 h", "protocol": "as §1"}, "T-47D [5]": {"tested_on": "T-47D", "assay": "relative IC50 (midpoint of fitted logistic curve, plateau may be below 50% inhibition; CellTiter-Glo viability); higher = less potent", "conditions": "72 h", "protocol": "as §1"}, "BT-474 Tam2 [6]": {"tested_on": "BT-474 Tam2", "assay": "relative IC50 (midpoint of fitted logistic curve, plateau may be below 50% inhibition; CellTiter-Glo viability); higher = less potent", "conditions": "4-OH-tamoxifen in medium 1 µM; 72 h", "protocol": "as §1"}, "MCF-7 [7]": {"tested_on": "MCF-7", "assay": "relative IC50 (midpoint of fitted logistic curve, plateau may be below 50% inhibition; CellTiter-Glo viability); higher = less potent", "conditions": "72 h", "protocol": "as §1"}, "BT-474 Tam1 [8]": {"tested_on": "BT-474 Tam1", "assay": "relative IC50 (midpoint of fitted logistic curve, plateau may be below 50% inhibition; CellTiter-Glo viability); higher = less potent", "conditions": "4-OH-tamoxifen in medium 1 µM; 72 h", "protocol": "as §1"}, "ZR-75-1 [9]": {"tested_on": "ZR-75-1", "assay": "relative IC50 (midpoint of fitted logistic curve, plateau may be below 50% inhibition; CellTiter-Glo viability); higher = less potent", "conditions": "72 h", "protocol": "as §1"}, "BT-474 [10]": {"tested_on": "BT-474", "assay": "relative IC50 (midpoint of fitted logistic curve, plateau may be below 50% inhibition; CellTiter-Glo viability); higher = less potent", "conditions": "72 h", "protocol": "as §1"}, "ZR-75-1 Tam1 [11]": {"tested_on": "ZR-75-1 Tam1", "assay": "drug sensitivity score (DSS) (DSS (dimensionless)); higher = more sensitive; extreme values may be limits of the assay", "conditions": "4-OH-tamoxifen in medium 1 µM; 72 h", "protocol": "(§2)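 FIMM FO2B library drugs were tested at 5 concentrations (10,000-fold range) for 72 h, with CellTiter-Glo viability normalised to DMSO and benzethonium chloride controls. The Drug Sensitivity Score (DSS) is computed from the fitted logistic dose-response curve (area-based; 0 = inactive). Resistant lines and the 'in 1µM tamoxifen' arms were tested in 1 µM 4-OH-tamoxifen.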"}, "ZR-75-1 Tam2 [12]": {"tested_on": "ZR-75-1 Tam2", "assay": "drug sensitivity score (DSS) (DSS (dimensionless)); higher = more sensitive; extreme values may be limits of the assay", "conditions": "4-OH-tamoxifen in medium 1 µM; 72 h", "protocol": "as §2"}, "MCF-7 Tam1 [13]": {"tested_on": "MCF-7 Tam1", "assay": "drug sensitivity score (DSS) (DSS (dimensionless)); higher = more sensitive; extreme values may be limits of the assay", "conditions": "4-OH-tamoxifen in medium 1 µM; 72 h", "protocol": "as §2"}, "T-47D Tam1 [14]": {"tested_on": "T-47D Tam1", "assay": "drug sensitivity score (DSS) (DSS (dimensionless)); higher = more sensitive; extreme values may be limits of the assay", "conditions": "4-OH-tamoxifen in medium 1 µM; 72 h", "protocol": "as §2"}, "T-47D [15]": {"tested_on": "T-47D", "assay": "drug sensitivity score (DSS) (DSS (dimensionless)); higher = more sensitive; extreme values may be limits of the assay", "conditions": "72 h", "protocol": "as §2"}, "BT-474 Tam2 [16]": {"tested_on": "BT-474 Tam2", "assay": "drug sensitivity score (DSS) (DSS (dimensionless)); higher = more sensitive; extreme values may be limits of the assay", "conditions": "4-OH-tamoxifen in medium 1 µM; 72 h", "protocol": "as §2"}, "T-47D Tam2": {"tested_on": "T-47D Tam2", "assay": "drug sensitivity score (DSS) (DSS (dimensionless)); higher = more sensitive; extreme values may be limits of the assay", "conditions": "4-OH-tamoxifen in medium 1 µM; 72 h", "protocol": "as §2"}, "MCF-7 [17]": {"tested_on": "MCF-7", "assay": "drug sensitivity score (DSS) (DSS (dimensionless)); higher = more sensitive; extreme values may be limits of the assay", "conditions": "72 h", "protocol": "as §2"}, "BT-474 Tam1 [18]": {"tested_on": "BT-474 Tam1", "assay": "drug sensitivity score (DSS) (DSS (dimensionless)); higher = more sensitive; extreme values may be limits of the assay", "conditions": "4-OH-tamoxifen in medium 1 µM; 72 h", "protocol": "as §2"}, "ZR-75-1 [19]": {"tested_on": "ZR-75-1", "assay": "drug sensitivity score (DSS) (DSS (dimensionless)); higher = more sensitive; extreme values may be limits of the assay", "conditions": "72 h", "protocol": "as §2"}, "BT-474 [20]": {"tested_on": "BT-474", "assay": "drug sensitivity score (DSS) (DSS (dimensionless)); higher = more sensitive; extreme values may be limits of the assay", "conditions": "72 h", "protocol": "as §2"}}, "data": [{"compound": "CCCC(CCC)C(=O)O", "note": "[Valproic acid]", "values": [{"measurement": "relative IC50", "setting": "ZR-75-1 Tam1 [1]", "result": "> 10", "unit": "µM"}, {"measurement": "relative IC50", "setting": "ZR-75-1 Tam2 [2]", "result": "> 10", "unit": "µM"}, {"measurement": "relative IC50", "setting": "MCF-7 Tam1 [3]", "result": "> 10", "unit": "µM"}, {"measurement": "relative IC50", "setting": "T-47D Tam1 [4]", "result": "> 10", "unit": "µM"}, {"measurement": "relative IC50", "setting": "T-47D [5]; 4-OH-tamoxifen in medium 0 µM", "result": "> 10", "unit": "µM"}, {"measurement": "relative IC50", "setting": "BT-474 Tam2 [6]", "result": "> 10", "unit": "µM"}, {"measurement": "relative IC50", "setting": "MCF-7 [7]; 4-OH-tamoxifen in medium 0 µM", "result": "> 10", "unit": "µM"}, {"measurement": "relative IC50", "setting": "MCF-7 [7]; 4-OH-tamoxifen in medium 1 µM", "result": "> 10", "unit": "µM"}, {"measurement": "relative IC50", "setting": "BT-474 Tam1 [8]", "result": "> 10", "unit": "µM"}, {"measurement": "relative IC50", "setting": "ZR-75-1 [9]; 4-OH-tamoxifen in medium 0 µM", "result": "> 10", "unit": "µM"}, {"measurement": "relative IC50", "setting": "ZR-75-1 [9]; 4-OH-tamoxifen in medium 1 µM", "result": "> 10", "unit": "µM"}, {"measurement": "relative IC50", "setting": "BT-474 [10]; 4-OH-tamoxifen in medium 0 µM", "result": "> 10", "unit": "µM"}, {"measurement": "relative IC50", "setting": "BT-474 [10]; 4-OH-tamoxifen in medium 1 µM", "result": "> 10", "unit": "µM"}, {"measurement": "drug sensitivity score", "setting": "ZR-75-1 Tam1 [11]", "result": 0}, {"measurement": "drug sensitivity score", "setting": "ZR-75-1 Tam2 [12]", "result": 0}, {"measurement": "drug sensitivity score", "setting": "MCF-7 Tam1 [13]", "result": 0}, {"measurement": "drug sensitivity score", "setting": "T-47D Tam1 [14]", "result": 0}, {"measurement": "drug sensitivity score", "setting": "T-47D [15]; 4-OH-tamoxifen in medium 0 µM", "result": 0}, {"measurement": "drug sensitivity score", "setting": "T-47D [15]; 4-OH-tamoxifen in medium 1 µM", "result": 0.0101}, {"measurement": "drug sensitivity score", "setting": "BT-474 Tam2 [16]", "result": 0}, {"measurement": "drug sensitivity score", "setting": "T-47D Tam2", "result": 1.73}, {"measurement": "drug sensitivity score", "setting": "MCF-7 [17]; 4-OH-tamoxifen in medium 0 µM", "result": 0}, {"measurement": "drug sensitivity score", "setting": "MCF-7 [17]; 4-OH-tamoxifen in medium 1 µM", "result": 0}, {"measurement": "drug sensitivity score", "setting": "BT-474 Tam1 [18]", "result": 0}, {"measurement": "drug sensitivity score", "setting": "ZR-75-1 [19]; 4-OH-tamoxifen in medium 0 µM", "result": 0}, {"measurement": "drug sensitivity score", "setting": "ZR-75-1 [19]; 4-OH-tamoxifen in medium 1 µM", "result": 0}, {"measurement": "drug sensitivity score", "setting": "BT-474 [20]; 4-OH-tamoxifen in medium 0 µM", "result": 0}, {"measurement": "drug sensitivity score", "setting": "BT-474 [20]; 4-OH-tamoxifen in medium 1 µM", "result": 0}]}, {"compound": "O=C(c1cc(Cc2n[nH]c(=O)c3ccccc23)ccc1F)N1CCN(C(=O)C2CC2)CC1", "note": "[Olaparib]", "values": [{"measurement": "relative IC50", "setting": "ZR-75-1 Tam1 [1]", "result": "> 10", "unit": "µM"}, {"measurement": "relative IC50", "setting": "ZR-75-1 Tam2 [2]", "result": "> 10", "unit": "µM"}, {"measurement": "relative IC50", "setting": "MCF-7 Tam1 [3]", "result": "> 10", "unit": "µM"}, {"measurement": "relative IC50", "setting": "T-47D Tam1 [4]", "result": "> 10", "unit": "µM"}, {"measurement": "relative IC50", "setting": "T-47D [5]; 4-OH-tamoxifen in medium 1 µM", "result": "> 10", "unit": "µM"}, {"measurement": "relative IC50", "setting": "BT-474 Tam2 [6]", "result": "> 10", "unit": "µM"}, {"measurement": "relative IC50", "setting": "MCF-7 [7]; 4-OH-tamoxifen in medium 0 µM", "result": "> 10", "unit": "µM"}, {"measurement": "relative IC50", "setting": "ZR-75-1 [9]; 4-OH-tamoxifen in medium 0 µM", "result": "> 10", "unit": "µM"}, {"measurement": "relative IC50", "setting": "ZR-75-1 [9]; 4-OH-tamoxifen in medium 1 µM", "result": "> 10", "unit": "µM"}, {"measurement": "relative IC50", "setting": "BT-474 [10]; 4-OH-tamoxifen in medium 0 µM", "result": "> 10", "unit": "µM"}, {"measurement": "relative IC50", "setting": "BT-474 [10]; 4-OH-tamoxifen in medium 1 µM", "result": "> 10", "unit": "µM"}, {"measurement": "drug sensitivity score", "setting": "ZR-75-1 Tam1 [11]", "result": 0}, {"measurement": "drug sensitivity score", "setting": "ZR-75-1 Tam2 [12]", "result": 0}, {"measurement": "drug sensitivity score", "setting": "MCF-7 Tam1 [13]", "result": 0}, {"measurement": "drug sensitivity score", "setting": "T-47D Tam1 [14]", "result": 0}, {"measurement": "drug sensitivity score", "setting": "T-47D [15]; 4-OH-tamoxifen in medium 0 µM", "result": 0}, {"measurement": "drug sensitivity score", "setting": "T-47D [15]; 4-OH-tamoxifen in medium 1 µM", "result": 0}, {"measurement": "drug sensitivity score", "setting": "BT-474 Tam2 [16]", "result": 0}, {"measurement": "drug sensitivity score", "setting": "T-47D Tam2", "result": 0.0505}, {"measurement": "drug sensitivity score", "setting": "MCF-7 [17]; 4-OH-tamoxifen in medium 0 µM", "result": 0}, {"measurement": "drug sensitivity score", "setting": "MCF-7 [17]; 4-OH-tamoxifen in medium 1 µM", "result": 0.285}, {"measurement": "drug sensitivity score", "setting": "BT-474 Tam1 [18]", "result": 0.0009}, {"measurement": "drug sensitivity score", "setting": "ZR-75-1 [19]; 4-OH-tamoxifen in medium 0 µM", "result": 0}, {"measurement": "drug sensitivity score", "setting": "ZR-75-1 [19]; 4-OH-tamoxifen in medium 1 µM", "result": 0}, {"measurement": "drug sensitivity score", "setting": "BT-474 [20]; 4-OH-tamoxifen in medium 0 µM", "result": 0}, {"measurement": "drug sensitivity score", "setting": "BT-474 [20]; 4-OH-tamoxifen in medium 1 µM", "result": 0}]}]}
